Experimental data: US9637493B2, “Substituted pyrrolopyrimidines as HDM2 inhibitors” (Merck Sharp & Dohme Corp., priority 2012, dated 2017)

target: HDM2 (Homo sapiens (Human), UniProt Q00987); assay: HDM2 FRET assay (inhibition of p53 peptide binding to HDM2); conditions: truncated HDM2 residues 17 to 125, 0.5 nM; FITC labeled 8-mer peptide 3 nM; two hour incubation at room temperature
Experimental: Methods: An HDM2 FRET assay was developed to assess the compounds' inhibitory activity towards binding of p53 protein. […] (containing p53 binding surface, Science (1994) 265, 346-355), with N-terminal His and Thioredoxin tag was generated in pET32a expression vector and expressed in E. coli strain BL21(DE3)Rosetta. Protein was purified using Ni-affinity chromatography, followed by size exclusion chromatography using Superdex 75 26/60 column. […] After two hour incubation at room temperature in a humidified chamber plates were read on EnVision plate reader with the following settings: excitation: UV, […], two emission filters: 520 nm and 495 nm respectively. […] IC50 DETERMINATIONS: Dose-response curves were plotted from the inhibition data, from 10 point serial dilutions of inhibitory compounds. Concentration of compound was plotted against em520/Cem495 ratio signal. To generate IC50 values, the dose-response curves were fitted to a standard sigmoidal curve and IC50 values were derived by nonlinear regression analysis.

Sequence of HDM2 (Q00987 17-125): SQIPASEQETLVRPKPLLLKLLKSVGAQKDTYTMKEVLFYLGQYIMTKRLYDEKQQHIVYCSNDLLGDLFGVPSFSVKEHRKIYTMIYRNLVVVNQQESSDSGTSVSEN

| Compound | IC50 [nM] |
| --- | --- |
| Cc1cccc(-c2cc3nc(C(=O)O)nc(N[C@H](C)C4CCC4)c3n2Cc2ccc(F)c(F)c2)c1 [Example 3.5, 4-{[(1R)-1-cyclobutylethyl]amino}-5-(3,4-difluorobenzyl)-6-(3-methylphenyl)-5H-pyrrolo[3,2-d]pyrimidine-2-carboxylic acid] | 126 |
| Cc1ccc(Cl)c(-c2cc3nc(C(=O)O)nc(N[C@H](C)C4CCC4)c3n2Cc2ccc(C(F)(F)F)cc2)c1 [Example 1.7, 6-(2-chloro-5-methylphenyl)-4-{[(1R)-1-cyclobutylethyl]amino}-5-[4-(trifluoromethyl)benzyl]-5H-pyrrolo[3,2-d]pyrimidine-2-carboxylic acid] | 63 |
| Cc1cn(C[C@H]2CC[C@H](C)CC2)c2c(-c3cncc(Cl)c3)nc(C(=O)O)nc12 [Example 5.3, 4-(5-chloropyridin-3-yl)-7-methyl-5-[(trans-4-methylcyclohexyl)methyl]-5H-pyrrolo[3,2-d]pyrimidine-2-carboxylic acid] | 88 |
| C[C@H]1CC[C@H](Cn2cc(CCc3cccnc3)c3nc(-c4noc(=O)[nH]4)nc(-c4cncc(Cl)c4)c32)CC1 [Example 6.2, 3-[4-(5-chloropyridin-3-yl)-5-[(trans-4-methylcyclohexyl)methyl]-7-(2-pyridin-3-ylethyl)-5H-pyrrolo[3,2-d]pyrimidin-2-yl]-1,2,4-oxadiazol-5(4H)-one] | 13 |
| CC(C)Cc1cn(C[C@H]2CC[C@H](C)CC2)c2c(-c3cncc(Cl)c3)nc(C(=O)O)nc12 [Example 5.7, 4-(5-chloropyridin-3-yl)-5-[(trans-4-methylcyclohexyl)methyl]-7-(2-methylpropyl)-5H-pyrrolo[3,2-d]pyrimidine-2-carboxylic acid] | 71 |
| Cc1cn(C[C@H]2CC[C@H](C)CC2)c2c(-c3cncc(Cl)c3)nc(-c3noc(=O)[nH]3)nc12 [Example 5.4, 3-{4-(5-chloropyridin-3-yl)-7-methyl-5-[(trans-4-methylcyclohexyl)methyl]-5H-pyrrolo[3,2-d]pyrimidin-2-yl}-1,2,4-oxadiazol-5(4H)-one] | 36 |
| Cc1cccc(-c2cc3nc(C(=O)O)nc(N[C@H](C)C4CCC4)c3n2Cc2ccc(OC(F)(F)F)c(F)c2)c1 [Example 2.4, 4-{[(1R)-1-cyclobutylethyl]amino}-5-[3-fluoro-4-(trifluoromethoxy)benzyl]-6-(3-methylphenyl)-5H-pyrrolo[3,2-d]pyrimidine-2-carboxylic acid] | 267 |
| Cc1cn(C[C@H]2CC[C@H](C)CC2)c2c(-c3cccc(Cl)c3)nc(C(=O)O)nc12 [Example 5.1, 4-(3-chlorophenyl)-7-methyl-5-[(trans-4-methylcyclohexyl)methyl]-5H-pyrrolo[3,2-d]pyrimidine-2-carboxylic acid] | 226 |
| Cc1cccc(-c2cc3nc(C(=O)O)nc(N[C@H](C)C4CCC4)c3n2Cc2ccc(C(F)F)cc2)c1 [Example 3.2, 4-{[(1R)-1-cyclobutylethyl]amino}-5-[4-(difluoromethyl)benzyl]-6-(3-methylphenyl)-5H-pyrrolo[3,2-d]pyrimidine-2-carboxylic acid] | 530 |
| C[C@H]1CC[C@H](Cn2c(C(F)c3ccccc3F)cc3nc(-c4noc(=O)[nH]4)nc(-c4cncc(Cl)c4)c32)CC1 (stereo partly drawn) [Example 8.2, 3-{4-(5-chloropyridin-3-yl)-6-[fluoro(2-fluorophenyl)methyl]-5-[(trans-4-methylcyclohexyl)methyl]-5H-pyrrolo[3,2-d]pyrimidin-2-yl}-1,2,4-oxadiazol-5(4H)-one] | 2 |
| C[C@H]1CC[C@H](Cn2ccc3nc(-c4noc(=O)[nH]4)nc(-c4cncc(Cl)c4)c32)CC1 [Example 4.4, 3-{4-(5-chloropyridin-3-yl)-5-[(trans-4-methylcyclohexyl)methyl]-5H-pyrrolo[3,2-d]pyrimidin-2-yl}-1,2,4-oxadiazol-5(4H)-one] | 57 |
| C[C@@H](Nc1nc(C(=O)O)nc2cc(-c3ccc4occc4c3)n(Cc3ccc(C(F)(F)F)cc3)c12)C1CCC1 [Example 1.6, 6-(1-benzofuran-5-yl)-4-{[(1R)-1-cyclobutylethyl]amino}-5-[4-(trifluoromethyl)benzyl]-5H-pyrrolo[3,2-d]pyrimidine-2-carboxylic acid] | 105 |
| COc1ccc(C)cc1-c1cc2nc(C(=O)O)nc(N[C@H](C)C3CCC3)c2n1Cc1ccc(C(F)(F)F)cc1 [Example 1.5, 4-{[(1R)-1-cyclobutylethyl]amino}-6-(2-methoxy-5-methylphenyl)-5-[4-(trifluoromethyl)benzyl]-5H-pyrrolo[3,2-d]pyrimidine-2-carboxylic acid] | 42 |
| C[C@H]1CC[C@H](Cn2ccc3nc(-c4noc(=O)[nH]4)nc(-c4cccc(Cl)c4)c32)CC1 [Example 4.2, 3-{4-(3-chlorophenyl)-5-[(trans-4-methylcyclohexyl)methyl]-5H-pyrrolo[3,2-d]pyrimidin-2-yl}-1,2,4-oxadiazol-5(4H)-one] | 132 |
| Cc1ccc(Cl)c(-c2cn(Cc3ccc(C(F)(F)F)cc3)c3c(N[C@H](C)C4CCC4)nc(C(=O)O)nc23)c1 [Example 1.8, 7-(2-chloro-5-methylphenyl)-4-{[(1R)-1-cyclobutylethyl]amino}-5-[4-(trifluoromethyl)benzyl]-5H-pyrrolo[3,2-d]pyrimidine-2-carboxylic acid] | 712 |
| Cc1cccc(-c2cc3nc(C(=O)O)nc(N[C@H](C)C4CCC4)c3n2Cc2ccc(C)c(F)c2)c1 [Example 3.6, 4-{[(1R)-1-cyclobutylethyl]amino}-5-(3-fluoro-4-methylbenzyl)-6-(3-methylphenyl)-5H-pyrrolo[3,2-d]pyrimidine-2-carboxylic acid] | 124 |
